Laboratory results as given in the supplement of paper PMC3974653.
Structures can show the parent of a compound that is named as a salt.

Each compound was assayed on MTT (mouse pheochromocytoma) (assay: IC50 of cell viability (ATP content)). Settings: (24 or 48 h).
Outline: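 After overnight culture at 37°C, 5% CO2 in white 1536-well plates, MTT mouse pheochromocytoma cells were given 23 nl of library compound in DMSO by pintool across 8 concentrations, spanning final 0.5 nM to 46 µM. Following 24 or 48 hrs, CellTiter-Glo luminescence was read after 15 minutes and normalised against positive-control (100%) and DMSO (0%) wells. A four-parameter logistic model provided the IC50.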

Row | SMILES | IC50 of cell viability
1 | CC(=O)Nc1ccc(OC(=O)c2ccccc2O)cc1 [ACETAMINOSALOL] | > 46 µM
2 | CCCCC(CC)CCC(CC(C)C)OS(=O)(=O)[O-] (stereo not given) [NiaproofÆ 4] | > 46 µM
3 | O=C(Cn1cnnn1)N[C@@H]1C(=O)N2C(C(=O)O)=C(CSc3nncs3)CS[C@H]12 [Ceftezole sodium] | > 46 µM
4 | CC(=O)OCC(=O)C1(O)CCC2C3CCC/4=C/C(=O)CCC4(C)C3C(O)CC12C (stereo not given) [Hydrocortisone acetate] | > 46 µM
5 | O=C(O)COc1ccccc1/C=N/NC(=O)c1ccncc1 [Aconiazida] | > 46 µM
6 | CC1(C)[C@@H]2CC[C@@]1(C)C(=O)C2 [Camphor] | > 46 µM
7 | O=C(Nc1ccccc1-c1ccc(Cl)cc1)c1cccnc1Cl [Boscalid] | > 46 µM
8 | NC1CCCCC1N.O=C([O-])C(=O)[O-].[Pt+2] (stereo not given) [OXALIPLATIN] | > 46 µM
9 | C[Se]CCC(N)C(=O)O (stereo not given) [SELENOMETHIONINE, SE-75] | > 46 µM
10 | CCC(C)(C)OC(=O)N[C@@H](Cc1c[nH]c2ccccc12)C(=O)N[C@@H](CCSC)C(=O)N[C@@H](CC(=O)O)C(=O)N[C@@H](Cc1ccccc1)C(N)=O [AMOGASTRIN] | > 46 µM
11 | COc1c2c(cc3c1OCO3)CCN(C)C2 [Hydrocotarnine hydrobromide] | > 46 µM
12 | Cc1ccc(C(=O)C(C)CN2CCCCC2)cc1.Cl (stereo not given) [TOLPERISONE HYDROCHLORIDE] | > 46 µM
13 | CCN1C[C@]2(COC)[C@H](O)C[C@H](OC)[C@]34C1C([C@H](OC)[C@H]23)[C@]1(OC(C)=O)[C@H]2[C@@H](OC(=O)c3ccccc3)[C@](O)(C[C@H]24)[C@@H](OC)[C@@H]1O [ACONITINE] | > 46 µM
14 | N=C(N)NC(=N)N1CCOCC1 [Moroxidine hydrochloride] | > 46 µM
15 | Cc1cccc(C)c1NC(=O)CC12CCCN1CCC2 [PILSICAINIDE HYDROCHLORIDE] | > 46 µM
16 | Cc1cccc(C)c1NC(=O)NC1=CCCN1C [Xilobam] | > 46 µM

Row | SMILES | IC50 of cell viability
17 | CN[C@@H](C)[C@H]1CC[C@@H](N)[C@H](O[C@@H]2[C@@H](O)[C@H](O[C@@H]3OC[C@@](C)(O)[C@@H](NC)[C@H]3O)[C@H](N)C[C@@H]2N)O1.CN[C@H]1[C@@H](O)[C@H](O[C@H]2[C@H](O)[C@@H](O[C@@H]3O[C@@H](CN)CC[C@H]3N)[C@@H](N)C[C@H]2N)OC[C@@]1(C)O.CN[C@H]1[C@@H](O)[C@H](O[C@H]2[C@H](O)[C@@H](O[C@@H]3O[C@@H]([C@H](C)N)CC[C@H]3N)[C@@H](N)C[C@H]2N)OC[C@@]1(C)O.O=[S+]([O-])(O)O [Gentamicine sulfate] | > 46 µM
18 | O=C(CC1NCCC[C@H]1O)Cn1cnc2cc(Br)c(Cl)cc2c1=O (stereo not given in full) [HALOFUGINONE LACTATE] | > 46 µM
19 | NC(=O)OCCCc1ccccc1 [Phenprobamate] | > 46 µM
20 | OCCOCCN1CCN(CC1)C/2=N/C3=CC=CC=C3SC4=CC=CC=C24 [quetiapine] | > 46 µM
21 | CCOC(=O)C\1=C(COCCN)\N\C(=C(/C1C2=CC=CC=C2Cl)C(=O)OC)C.O[S+]([O-])(=O)C3=CC=CC=C3 (stereo not given) [AMLODIPINE BESYLATE] | > 46 µM
22 | CC1CNc2c(cccc2S(=O)(=O)NC(CCCNC(=N)N)C(=O)N2CC[C@@H](C)C[C@@H]2C(=O)O)C1 (stereo not given in full) [ARGATROBAN] | > 46 µM
23 | O=C(O[C@H]1C[C@H]2CC[C@@H](C1)[N+]21CCCC1)C(O)(c1ccccc1)c1ccccc1 [TROSPIUM CHLORIDE] | > 46 µM
24 | CCc1cccc(CC)c1NC(=O)CN(CC(=O)O)CC(=O)O [Etifenin] | > 46 µM
25 | Cl.Nc1cc(Cl)c(N=C2NCCN2)c(Cl)c1 [p-Aminoclonidine hydrochloride] | > 46 µM
26 | CCC(C)(S(=O)(=O)CC)S(=O)(=O)CC [SULFONETHYLMETHANE] | > 46 µM
27 | Cc1ncc(COP(=O)(O)O)c(CN)c1O [PYRIDOXAMINE PHOSPHATE] | > 46 µM
28 | C[C@H]1CNCCc2ccc(Cl)cc21 [Lorcaserin] | > 46 µM
29 | Cc1cccc(C)c1NC(=O)C1CCCCN1C.Cl (stereo not given) [MEPIVACAINE HYDROCHLORIDE] | > 46 µM
30 | CCN(CC)CCOC(=O)C(O)(c1ccccc1)c1ccccc1 [BENACTYZINUM] | > 46 µM
31 | CCc1nnc(N[S+](=O)([O-])c2ccc(N)cc2)s1 [Sulfaethidole] | > 46 µM

Other lines, results leading:

Row | IC50 of cell viability | SMILES
32 | > 46 µM | CC[C@@H]([C@H](C)O)N1\N=C/N(C1=O)C2=CC=C(C=C2)N3CCN(CC3)C4=CC=C(OCC5CO[C@@](C5)(C[N]6C=NC=N6)C7=C(F)C=C(F)C=C7)C=C4 (stereo not given in full) [Posaconazole]
33 | > 46 µM | CC[C@@]12CCCN3CCc4c(n(c5ccccc45)[C@](O)(C(=O)OC)C1)C32 (stereo not given in full) [VINCAMINE]
34 | > 46 µM | CN1[C@@H](CC(=O)c2ccccc2)CCC[C@H]1C[C@H](O)c1ccccc1 [LOBELINE]
35 | > 46 µM | CN(C)CCOC(=O)[C@@H](c1ccccc1)C1(O)CCCC1 [Cyclopentolate hydrochloride]
36 | > 46 µM | CCOC(=O)/C=C(C)/C=C/C=C(C)/C=C/c1c(C)cc(OC)c(C)c1C [ETRETINATE]
37 | > 46 µM | COc1ccc(C(=O)NCc2ccc(OCCN(C)C)cc2)cc1OC [ITOPRIDE HYDROCHLORIDE]
38 | > 46 µM | CC(=O)OCC1=C(C(=O)O)N2C(=O)[C@@H](NC(=O)Cc3cccs3)[C@H]2SC1 [Cefalotina]
39 | > 46 µM | CC1=C(C)C(=O)C(C(CCCCCC(=O)O)c2ccccc2)=C(C)C1=O (stereo not given) [SERATRODAST]
40 | > 46 µM | CCCCN1CCCC[C@H]1C(=O)Nc1c(C)cccc1C [Levobupivacaine hydrochloride]
41 | > 46 µM | c1ccc(C(OC2CCCN(CCc3ccc4c(c3)OCO4)C2)c2ccccc2)cc1 (stereo not given) [Zamifenacin fumarate]
42 | > 46 µM | O=C([O-])Cc1ccccc1Nc1c(Cl)cccc1Cl.[Na+] [DICLOFENAC SODIUM]
43 | > 46 µM | NC/1=N/C(=O)N/C=C1F [Flucytosine]
44 | > 46 µM | NC1CCN(c2cccc(Cl)n2)CC1
45 | > 46 µM | C=CCN1C(=O)C(CC(C)C)NC1=S (stereo not given) [ALBUTOINUM]
46 | > 46 µM | CO[C@H]1/C=C/O[C@@]2(C)Oc3c(C)c(O)c4c(O)c(c(/C=N\N5CCN(C6CCCC6)CC5)c(O)c4c3C2=O)NC(=O)C(C)=C/C=C/[C@H](C)[C@H](O)[C@@H](C)[C@@H](O)[C@@H](C)[C@H](OC(C)=O)[C@@H]1C [RIFAPENTINE]
47 | > 46 µM | COc1cc(Cc2cnc(N)nc2N)cc(OC)c1OC [Trimethoprim]
48 | > 46 µM | CCC1(c2cnc[nH]2)Cc2ccccc2C1 [Atipamezole Hydrochloride]
49 | > 46 µM | CO/N=C(\C(=O)N[C@@H]1C(=O)N2C(C(=O)[O-])=C(C[N+]3(C)CCCC3)CS[C@@H]12)c1csc(N)n1.Cl.O [Cefepime hydrochloride]
50 | > 46 µM | COc1ccc(C2NC(=S)N3C(c4ccc(OC)c(OC)c4)NC(=S)N23)cc1OC (stereo not given)
